Experimental data published in patent US20220119440A1, “PEPTIDE AND METHOD FOR MANUFACTURING SAME” (AGC Inc., priority 2019, published 2022).
Like-named read-outs stand apart in the source and are kept apart here. Peptide text beside a SMILES is read from it. * marks the point of attachment. NHBn = c1ccc(CN*)cc1

Assays:
[1] = MDCK-II assay (cell monolayer assay); type: in vitro ADME; conditions: dog
Protocol: (§1) Further, with respect to the peptides synthesized in Examples 14, 15 and 17 and Comparative Examples 5,6 and 8, MDCK-II assay was conducted. For the MDCK-II assay, propranolol (CAS No: 318-98-9) was used as a positive control (“PC”) and Norfloxacin (CAS No: 70458-96-7) as a negative control (“NC”).
MDCK-II cells were seeded on Cell Culture Inserts (Falcon) at 5.04×10^4 cells/mL, and 5 days after seeding, cell monolayer assay (MDCK-II assay) was conducted. The peptide stock solution was prepared at 2 mM in DMSO solution, and diluted with HBSS containing 20 mM of HEPES (pH 7.5) to prepare a 2 μM peptide solution using as a solvent 0.1% DMSO/HBSS (+), as a donor solution. The acceptor solution was a 0.1% DMSO solution using as a solvent HBSS (+) containing 20 mM of HEPES (pH 7.5). […] The peptide concentration was analyzed by LC/MS. The experiment was conducted repeatedly three times. The permeability (Papp) was calculated in accordance with the following formula.
A: filter area (0.3 cm^2) VB: basolateral well volume (0.75 cm^3) t: incubation time (s) (2 hours=7200 s) C0: initial concentration in apical chamber (2 μM) CB (t): basolateral compound concentration at time t

[2] = PAMPA (Parallel Artificial Membrane Permeability Assay); type: in vitro ADME
Protocol: as §1
Permeability of the peptides was evaluated by PAMPA. In the PAMPA, 300 μL of a 5% DMSO-containing PBS was added to the respective wells of an accepter plate (MultiScreen 96-well transport receiver plate, manufactured by Merck), and 150 μL of a peptide solution (20 μM) dissolved in 5% DMSO/PBS was added to the respective wells of a donor plate (MultiScreen-IP filter plate, 0.45 μm, manufactured by Merck). A dodecane solution of 1% lecithin (from soybean) was subjected to ultrasonic treatment for 30 minutes before use, and 5 μL of the solution was applied to the membrane support (PVDF) of the respective wells of the donor plate. The donor plate was placed on the acceptor plate, and the plates were left to stand in an incubator at 25° C. for 18 hours. The peptide concentration was determined by LC/MS. The experiment was conducted repeatedly three times. The permeability (Pe) was calculated in accordance with the following formulae.
A: filter area (0.3 cm^2) VD: volume of donor well (0.15 cm^3) VA: volume of acceptor well (0.3 cm^3) t: incubation time (s) (18 hours=64800 s) CD (t): compound concentration in donor well at time t CA (t): compound concentration in acceptor well at time t

[3] = MDCK-II monolayer, 2 μM peptide, apical side to basolateral side, 37° C., 5% CO2, 2 hours, repeated three times, read-out: Papp
[4] = peptide 20 μM in 5% DMSO/PBS, 1% lecithin in dodecane on PVDF, 25° C. for 18 hours, repeated three times, read-out: Pe

Structure (SMILES) | Papp A→B at 2 h, 2 μM ([1]; MDCK) | Papp at 18 h, 20 μM [2] | Papp A→B at 2 h, 2 μM [1, 3] | Papp at 18 h, 20 μM [2, 4]
CC(=O)N[C@@H](C)C(=O)N[C@@H](C)C(=O)NCc1ccccc1 [Comparative Example 5, Ac-L-Ala-L-Ala-NHBn, reference compound] (Ac-Ala-Ala-NHBn) | 1.23 ×10⁻⁶ cm/s | – | – | –
CC(=O)N[C@H](C(=O)N[C@@H](C)C(=O)N(C)C)C(C)C [Comparative Example 7, Ac-L-Val-L-Ala-NMe2, reference compound] (Ac-Val-Ala-NMe2) | – | ≤ 0.003 ×10⁻⁶ cm/s | – | –
CC(=O)N[C@H](C(=O)N[C@@H](Cc1ccccc1)C(=O)NCC(C)C)C(C)C [Comparative Example 8, Ac-L-Val-L-Phe-iBu, reference compound] | 7.12 ×10⁻⁶ cm/s | 0.07 ×10⁻⁶ cm/s | – | –
CC(=O)NC(C(=O)N[C@@H](C)C(=O)NCc1ccccc1)C(F)(F)F (stereo partly drawn) [Example 14, Ac-D,L-Ala (F3)-L-Ala-NHBn] | – | – | 3.26 ×10⁻⁶ cm/s | –
CC(=O)NC(C(=O)N[C@@H](Cc1ccccc1)C(=O)NCC(C)C)C(F)(F)F (stereo partly drawn) [Example 15, Ac-D,L-Ala (F3)-L-Phe-iBu] | – | – | 9.86 ×10⁻⁶ cm/s | 0.19 ×10⁻⁶ cm/s
CC(=O)NC(C(=O)N[C@@H](C)C(=O)N(C)C)C(C(F)(F)F)C(F)(F)F (stereo partly drawn) [Example 16, Ac-D,L-Val (F6)-L-Ala-NMe2] | – | – | – | 0.04 ×10⁻⁶ cm/s
CC(=O)NC(C(=O)N[C@@H](Cc1ccccc1)C(=O)NCC(C)C)C(C(F)(F)F)C(F)(F)F (stereo partly drawn) [Example 17, Ac-D,L-Val (F6)-L-Phe-iBu] | – | – | 8.38 ×10⁻⁶ cm/s | 1.57 ×10⁻⁶ cm/s
